Reference: patent US8716293B2, “Macrocyclic integrase inhibitors” (Janssen R&D Ireland, priority 2010, dated 2014)

Key:
HIV-1 SDM strain Q148R = assay: cell-based HIV-1 replication assay in MT4-LTR-EGFP cells, Q148R mutant; conditions: fold change in activity against Q148R mutant compared to wild type HIV
From the text: (§1) MT4-LTR-enhanced green fluorescent protein (EGFP) cells were obtained by transfecting MT4 cells with a selectable construct encompassing the coding sequences for the HIV LTR as a promoter for the expression of EGFP and subsequent selection of permanently transfected cells. MT4-cytomegalovirus (CMV)-EGFP cells were obtained by selection for permanently transformed MT4 cells with a CMV-EGFP reporter gene. Cell lines were maintained in RPMI 1640 medium supplemented with 10% heat-inactivated fetal calf serum, 2 mM L-glutamine, 0.1% NaHCO3, and antibiotics (0.02% gentamicin and 0.8% G418) and incubated in a humidified incubator with a 5% CO2 atmosphere at 37° C.
(§2) N155H and Q148R mutant Integrase coding sequences were constructed in the pUC19-5′HXB2D vector (XbaI-SalI fragment of pHXB2D), containing the HIV-1 clone HXB2D IN coding sequence, by using a QuikChange site-directed mutagenesis kit (Stratagene, La Jolla, Calif.) and HPLC-purified primers (Genset Oligos, La Jolla, Calif.). Altered plasmid sequences were confirmed by dideoxyribose sequencing. For generation of site-directed mutant (SDM) virus stocks, MT4 cells were subcultured at a density of 250,000 cells/ml on the day before transfection. Cells were pelleted and resuspended in phosphate-buffered saline at a concentration of 3.1×10^6 cells/ml. A 0.8-ml portion ([…]) was used for each transfection. Transfections were performed with a Bio-Rad Gene Pulser (Bio-Rad, Hercules, Calif.) with 0.4-cm electrode cuvettes (Bio-Rad). Cells were electroporated with 10 μg of SalI-linearized pUC19-3′HXB2D (SalI-XbaI fragment of pHXB2D) and 5 μg of SalI-digested SDM at 250 μF and 300 V, followed by a 30-min incubation at room temperature. Ten ml of fresh culture medium was then added to the suspension of transfected cells, and incubation was performed at 37° C. in a humidified atmosphere with 5% CO2. Cell cultures were monitored for the appearance of cytopathic effect (CPE).
(§3) The inhibitory antiviral activity of different compounds was determined in a cell-based HIV-1 replication assay. MT4-LTR-EGFP cells (150,000 cells/ml) were infected with HIV-1 (IIIB or SDM strains Q148R, N155H, or G140S-Q148H; multiplicity of infection [MOI] of 0.0025) in the presence or absence of inhibitor. After 3 days of incubation, the inhibition of HIV replication was quantified by measuring EGFP fluorescence, and expressed as the compound concentration required for 50% inhibition of HIV-1 replication in cell culture (EC50).

[1] = test system: cryopreserved hepatocytes from Sprague Dawley rats; assay: metabolic stability in rat hepatocytes; type: in vitro ADME; conditions: 1 μM, percentage turnover; for Rat (% TO) 15 min: 15 min incubation; for Rat (% TO) 60 min: 60 min incubation
Description: (§4) For determining in vitro metabolic stability, cryopreserved hepatocytes from Sprague Dawley rats and of human subjects (pool of male and female) were obtained from an external supplier (Cellz Direct Inc., Paisly, UK). Tested compounds were dissolved in DMSO and this stock solution was used to spike rat and human hepatocyte cell cultures (10^6 cells/ml) at a final concentration of 1 μM (final percentage of DMSO was 0.02% (v/v)). Incubations were performed for up to 60 min at approximately 37° C. and terminated by the addition of two volumes of DMSO. Samples were then centrifuged and aliquots of the supernatant analyzed using liquid chromatography (LC) with electrospray mass spectrometric detection (MS/MS) to monitor the disappearance of parent compound by single reaction monitoring (SRM) and reverse-phase chromotatography with a gradient of acetonitrile and water containing 0.1% (v/v) formic acid. Based on peak area, the percentage of parent compound remaining after 15 and 60 min incubation was calculated and the results, expressed as percentage turnover (TO) relative to time zero controls.

[2] = pharmacokinetic evaluation in the rat; type: in vivo, male Sprague-Dawley rats; conditions: intravenous bolus 2 mg/kg; for CLp: plasma clearance; for t1/2: terminal phase elimination half-life; for Vss: volume of distribution at steady-state
Description: For determining the pharmacokinetic properties in rat, each HIV integrase inhibitor was dissolved in PEG400/normal saline (70:30 (v/v)) at a nominal concentration of 1 mg/ml and administered (2 ml/kg) to male Sprague-Dawley rats (n=3 per test compound) as an intravenous bolus via a saphenous vein at a dose level of 2 mg/kg. […] Plasma was obtained by centrifugation and stored at −20° C. prior to analysis. Analysis was performed using liquid chromatography (LC) with tandem mass spectrometric detection (MS/MS) in positive ion mode. Each HIV integrase inhibitor was eluted from a reversed-phase column with a gradient of acetonitrile and water containing 0.1% (v/v) formic acid. At the time of analysis plasma samples (50 p. 1) were thawed and […] with 200 μl of acetonitrile containing 0.1% (v/v) formic acid and centrifuged. Aliquots of the supernatant (100 μl) were diluted with 200 μl of water containing 25% (v/v) methanol and 0.1% (v/v) formic acid and injected via an electrospray interface directly into the Mass Spectrometer. Calibration standards and quality controls were prepared in rat plasma at the same time as the samples and analyzed before and after the samples containing HIV integrase inhibitor. Non-compartmental pharmacokinetic analysis of the plasma concentration-time curves was performed using WinNonLin software to provide estimates of the plasma clearance (CLp), volume of distribution at steady-state (Vss) and terminal phase elimination half-life (t1/2).

[3] = test system: HIV-1 SDM strain G140S-Q148H; assay: cell-based HIV-1 replication assay in MT4-LTR-EGFP cells, G140S-Q148H mutant; conditions: fold change in activity against G140S-Q148H mutant compared to wild type HIV
From the text: as §1, §2, §3

HIV-1 LAI (IIIB) = assay: antiviral assay in the presence of 50% human serum; type: cell-based; conditions: MT-4-LTR-EGFP cells, 4 days, resazurin cell viability
Description: For the antiviral assay in the presence of 50% human serum, MT-4-LTR-EGFP cells were infected with HIV-1 LAI (IIIB) at a MOI of 0.001 to 0.01 CCID50/cell in RPMI1640 medium. Following 1 h of incubation, cells were washed and plated into a 96-well plate containing serial dilutions of test compound in the presence of 10% fetal calf serum or 50% human serum. After 4 days of incubation, the EC50 in the presence of 50% human serum (EC50/HS) was determined by a cell viability assay using resazurin (as described by Fields, R. D., and M. V. Lancaster (1993) Am. Biotechnol. Lab. 11:48-50).

HIV-1 SDM strain N155H = assay: cell-based HIV-1 replication assay in MT4-LTR-EGFP cells, N155H mutant; conditions: fold change in activity against N155H mutant compared to wild type HIV
From the text: as §1, §2, §3

[4] = test system: cryopreserved hepatocytes of human subjects; assay: metabolic stability in human hepatocytes; type: in vitro ADME; conditions: 1 μM, percentage turnover; for Human (% TO) 15 min: 15 min incubation; for Human (% TO) 60 min: 60 min incubation
Description: as §4

Row | Structure (SMILES) | FC-Q148R (HIV-1 SDM strain Q148R) | Rat (% TO) 15 min [1] | Rat (% TO) 60 min [1] | CLp [2] | t1/2 [2] | Vss [2] | FC-G140S-Q148H [3] | EC50 (HIV-1 LAI (IIIB)) | FC-N155H (HIV-1 SDM strain N155H) | Human (% TO) 15 min [4] | Human (% TO) 60 min [4]
1 | CCN1C[C@H](C)n2c(c(O)c3c(=O)n4nc(c32)N(C)S(=O)(=O)CCCCCOc2cc(F)ccc2C4)C1=O [Compound 5] | 0.5 | 15 % TO | 20 % TO | 8 mL/min/kg | 4.9 h | 1.5 L/kg | 1.2 | 16 nM | 2.4 | 12 % TO | 38 % TO
2 | CCN1C[C@H](C)n2c(c(O)c3c(=O)n4nc(c32)N(C)S(=O)(=O)CCCCNC(=O)c2cc(F)ccc2C4)C1=O [Compound 22] | 0.5 | – | – | 12 mL/min/kg | – | 0.6 L/kg | 1.7 | 14 nM | 6.0 | – | –
3 | CC(C)N1C[C@H](C)n2c(c(O)c3c(=O)n4nc(c32)N(C)S(=O)(=O)CCCCOc2cc(F)ccc2C4)C1=O [Compound 6] | 0.7 | 20 % TO | 33 % TO | 5 mL/min/kg | 5.5 h | 0.7 L/kg | 1.7 | 5 nM | 3.2 | 23 % TO | 36 % TO
4 | CCN1C[C@H](C)n2c(c(O)c3c(=O)n4nc(c32)N(C)S(=O)(=O)CCCCOCc2cc(F)ccc2C4)C1=O [Compound 48] | 0.5 | 65 % TO | 86 % TO | 20 mL/min/kg | 1.4 h | 0.7 L/kg | 1.3 | 4 nM | 4.7 | 38 % TO | 72 % TO
5 | CCN1C[C@H](C)n2c(c(O)c3c(=O)n4nc(c32)C(=O)N(C)CCCCCOc2cc(F)ccc2C4)C1=O [Compound 31] | 0.6 | – | – | 13 mL/min/kg | 8.1 h | 6 L/kg | 7.0 | 21 nM | 4.6 | – | –
6 | CCN1C[C@H](C)n2c(c(O)c3c(=O)n4nc(c32)NCCCCCCNC(=O)c2cc(F)ccc2C4)C1=O [Compound 41] | 0.4 | – | – | 7 mL/min/kg | 5.4 h | 0.7 L/kg | 2.8 | 1110 nM | 6.0 | – | –
7 | CCN1CCCCCOc2cc(F)c(Cl)cc2Cn2nc(c3c(c(O)c4n3[C@@H](C)CN(CC)C4=O)c2=O)C1=O [Compound 33] | 0.5 | – | – | 11 mL/min/kg | 4.2 h | 1.3 L/kg | 2.5 | 147 nM | 5.1 | – | –
8 | CC(C)N1C[C@H](C)n2c(c(O)c3c(=O)n4nc(c32)N(C)S(=O)(=O)CCCCCOc2cc(F)ccc2C4)C1=O [Compound 7] | 0.4 | 21 % TO | 31 % TO | 7 mL/min/kg | 4.8 h | 0.9 L/kg | 1.0 | 12 nM | 2.2 | 2 % TO | 12 % TO
9 | CCN1C[C@H](C)n2c(c(O)c3c(=O)n4nc(c32)N2CCN(CC2)C(=O)CCCCOc2cc(F)ccc2C4)C1=O [Compound 45] | 0.8 | – | – | 8 mL/min/kg | 4.2 h | 0.9 L/kg | 1.6 | 6 nM | 4.3 | – | –
10 | C[C@H]1CN(C2CC2)C(=O)c2c(O)c3c(=O)n4nc(c3n21)C(=O)NCCCCCOc1cc(F)ccc1C4 [Compound 36] | 2.4 | – | – | – | – | – | 60.1 | 18 nM | 5.8 | – | –
11 | CCN1C[C@H](C)n2c(c(O)c3c(=O)n4nc(c32)N(C)S(=O)(=O)[C@@H](C)CCCCOc2cc(F)ccc2C4)C1=O [Compound 9] | 0.4 | – | – | – | – | – | 1.2 | 1930 nM | 2.0 | – | –
12 | C[C@H]1CN(C)C(=O)c2c(O)c3c(=O)n4nc(c3n21)C(=O)NCCCCCOc1cc(F)ccc1C4 [Compound 28] | 0.9 | – | – | – | – | – | 17.0 | 14 nM | 4.5 | – | –
13 | CCN1C[C@H](C)n2c(c(O)c3c(=O)n4nc(c32)N(C)S(=O)(=O)CCCCOc2cc(F)c(F)cc2C4)C1=O [Compound 19] | 1.1 | – | – | – | – | – | 3.6 | 8 nM | 4.9 | – | –
14 | CCN1C[C@H](C)n2c(c(O)c3c(=O)n4nc(c32)N(CC)S(=O)(=O)CCCCOc2cc(F)ccc2C4)C1=O [Compound 11] | 2.1 | – | – | – | – | – | 14.3 | 9 nM | 5.1 | – | –
15 | CC(C)N1C[C@H](C)n2c(c(O)c3c(=O)n4nc(c32)N(C2CC2)S(=O)(=O)CCCCOc2cc(F)ccc2C4)C1=O [Compound 14] | 1.0 | – | – | – | – | – | 4.3 | 18 nM | 3.5 | – | –
16 | CCN1C[C@H](C)n2c(c(O)c3c(=O)n4nc(c32)C(=O)NCCCCCOc2cc(F)c(Cl)cc2C4)C1=O [Compound 26] | 0.8 | – | – | – | – | – | 4.1 | 32 nM | 4.3 | – | –
17 | CCN1C[C@H](C)n2c(c(O)c3c(=O)n4nc(c32)C(=O)N(C)CCCCCOc2cc(F)c(Cl)cc2C4)C1=O [Compound 32] | 0.3 | – | – | – | – | – | 2.6 | 77 nM | 4.3 | – | –
